{"source": "patent US7964738B2", "about": "“Pharmaceutical compositions and methods of use of lipophilic, silicon-substituted, cyclooxygenase-2 selective non-steroidal anti-inflammatory drugs and derivatives” (Silamed, Inc., priority 2004, dated 2011)", "key": {"Recombinant human COX-1": {"target": "Recombinant human COX-1 (Homo sapiens, UniProt P23219)", "sequence (P23219 24-599)": "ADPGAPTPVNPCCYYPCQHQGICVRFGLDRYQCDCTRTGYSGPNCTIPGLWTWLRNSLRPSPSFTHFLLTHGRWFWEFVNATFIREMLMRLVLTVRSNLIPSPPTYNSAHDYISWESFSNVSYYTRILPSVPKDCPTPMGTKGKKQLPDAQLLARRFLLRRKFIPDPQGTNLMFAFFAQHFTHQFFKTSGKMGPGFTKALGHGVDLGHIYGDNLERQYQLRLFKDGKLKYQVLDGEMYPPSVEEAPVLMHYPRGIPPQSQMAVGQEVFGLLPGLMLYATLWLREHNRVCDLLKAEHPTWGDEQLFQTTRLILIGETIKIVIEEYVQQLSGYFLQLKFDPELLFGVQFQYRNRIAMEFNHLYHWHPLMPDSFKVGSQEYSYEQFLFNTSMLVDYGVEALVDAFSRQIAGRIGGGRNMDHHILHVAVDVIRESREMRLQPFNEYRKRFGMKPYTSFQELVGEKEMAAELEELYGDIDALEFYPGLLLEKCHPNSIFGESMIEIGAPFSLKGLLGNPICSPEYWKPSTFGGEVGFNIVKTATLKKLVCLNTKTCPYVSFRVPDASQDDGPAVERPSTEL", "experiment": "Recombinant human COX-1 enzyme assay (PGE2 by EIA)", "format": "biochemical", "procedure": "Recombinant human enzymes were reconstituted in buffer (100 mM Tris, pH 7.8 at 37° C.) containing 0.5 mM phenol (964 μl total volume). The enzyme preparations were preincubated with vehicle (DMSO) or compounds of the invention in DMSO (1% DMSO in final assay) for 10 min at 25° C. for COX-1 and 5 min at 22° C. for COX-2. […] The reaction was incubated for 35 s (maximum level of COX-2 accumulation as determined from time course studies), and terminated by addition of 50-60 μl of SnCl2 (1 mg/ml) in 0.1 N HCl. PGE2 production in the presence or absence of the drug was determined by Enzyme Immunoassay (EIA) analysis as described.\n(§1) EIA Determination of Prostaglandins\n(§2) EIA reagents for prostaglandin determination were purchased from commercial sources. PGE2 levels in enzyme assays were measured against standards prepared in the same milieu using standard methods. The EIA was conducted in 96-well micotiter plates and optical density measured using a microplate reader by standard methods."}, "Recombinant human COX-2": {"target": "T1, Recombinant human COX-2 (Homo sapiens, UniProt P35354)", "T1 sequence (P35354 18-604)": "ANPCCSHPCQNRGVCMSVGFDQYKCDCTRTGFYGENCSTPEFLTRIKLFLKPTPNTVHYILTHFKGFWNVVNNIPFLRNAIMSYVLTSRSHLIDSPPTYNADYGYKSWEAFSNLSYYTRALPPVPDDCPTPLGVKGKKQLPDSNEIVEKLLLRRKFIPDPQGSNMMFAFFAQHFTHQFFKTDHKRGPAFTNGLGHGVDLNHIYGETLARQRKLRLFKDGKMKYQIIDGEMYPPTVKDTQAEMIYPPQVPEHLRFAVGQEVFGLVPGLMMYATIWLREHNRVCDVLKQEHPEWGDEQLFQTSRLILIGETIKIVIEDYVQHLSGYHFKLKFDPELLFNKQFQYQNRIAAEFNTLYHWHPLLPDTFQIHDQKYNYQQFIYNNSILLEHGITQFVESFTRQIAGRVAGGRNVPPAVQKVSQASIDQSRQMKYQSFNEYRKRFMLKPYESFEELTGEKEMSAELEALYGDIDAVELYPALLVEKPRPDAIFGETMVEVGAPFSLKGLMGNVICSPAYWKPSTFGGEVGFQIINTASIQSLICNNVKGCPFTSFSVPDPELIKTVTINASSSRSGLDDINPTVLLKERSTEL", "experiment": "Recombinant human COX-2 enzyme assay (PGE2 by EIA)", "format": "biochemical", "conditions": "preincubation 5 min at 22° C., 2 μM arachidonic acid", "procedure": "Recombinant human enzymes were reconstituted in buffer (100 mM Tris, pH 7.8 at 37° C.) containing 0.5 mM phenol (964 μl total volume). The enzyme preparations were preincubated with vehicle (DMSO) or compounds of the invention in DMSO (1% DMSO in final assay) for 10 min at 25° C. for COX-1 and 5 min at 22° C. for COX-2. Excess hematin was added 1 min prior to initiation of reaction (1.25 μM final hematin) with 4 μM (COX-1) and 2 μM (COX-2) arachidonic acid (sodium salt). The final assay volume was 1.0 ml (100 mM Tris (pH 7.8), 0.5 mM phenol, 1.25 μM hematin and arachidonic acid at 37° C.). The reaction was incubated for 35 s (maximum level of COX-2 accumulation as determined from time course studies), and terminated by addition of 50-60 μl of SnCl2 (1 mg/ml) in 0.1 N HCl. PGE2 production in the presence or absence of the drug was determined by Enzyme Immunoassay (EIA) analysis as described.\nas §1, §2"}, "[1]": {"system": "human MiaPaCa-2 pancreatic cancer cells", "experiment": "In vitro cellular proliferation assay (SRB)", "format": "cell-based", "conditions": "MIA PaCa-2, 72 h, 3 days incubation, starting concentration 100 μM, read-out: IC50 (growth inhibition, MiaPaCa-2)", "method": "In vitro cell proliferation assays were performed using a 96-well plate based SRB (Sulforhodamine-B) assay. Briefly, human MiaPaCa-2 pancreatic cancer cells were plated in 100 μl medium on day 0 in 96-well microtiter plates (Falcon #3072). On day 1, 10 μl of serial dilutions of each compound (Nine 1:2 dilutions with a starting concentration of 100 μM) were added in triplicates to the plates. As a vehicle control, serial dilutions of DMSO with a starting concentration of 0.5% were also included. After incubation for 3 days at 37° C. in a humidified incubator, cells were fixed in situ with 50 μL of cold trichloroacetic acid (TCA, final concentration at 10% w/v) for 60 minutes. Cells were then washed 5 times with H2O and air-dried. Next, cells were stained with 20 μL of 0.2% SRB in 1% acetic acid and incubated at room temperature for 30 minutes and unbound SRB was removed by washing 5 times with 1% acetic acid and air-dried. Finally, bound SRB stain was solubilized in 50 μL of 50 μM Tris buffer before taking an optical density measurement at 570 nm using a BioTek Synergy™ HT Multiple Detection microplate reader. The growth inhibition data were expressed as the percentage of cell survival calculated from the background corrected absorbance. The surviving fraction of cells was determined by dividing the mean absorbance values of the test agent-treated samples by the mean absorbance values of untreated control."}}, "note": "pIC50: −log10 of the molar value."}
{"smiles": "COc1ccc2c(c1)c(CC(=O)NC[Si](C)(C)c1ccccc1)c(C)n2C(=O)c1ccc(Cl)cc1", "note": "[Example 3, 2-(1-(4-chlorobenzoyl)-5-methoxy-2-methyl-1H-indol-3-yl)-N-((dimethyl(phenyl)silyl)methyl)acetamide]", "values": [{"measurement": "pIC50", "setting": "Recombinant human COX-1", "value": "< 5.00"}, {"measurement": "pIC50", "setting": "Recombinant human COX-2", "value": 6.51}, {"measurement": "pIC50", "setting": "[1]", "value": 5.32}, {"measurement": "melting point", "value": "121 to 124", "unit": "°C"}]}
{"smiles": "CCO[Si](CCCNC(=O)Cc1c(C)n(C(=O)c2ccc(Cl)cc2)c2ccc(OC)cc12)(OCC)OCC", "note": "[Example 4, 2-(1-(4-chlorobenzoyl)-5-methoxy-2-methyl-1H-indol-3-yl)-N-(3-(triethoxysilyl)propyl)acetamide]", "values": [{"measurement": "pIC50", "setting": "Recombinant human COX-1", "value": 5.30}, {"measurement": "pIC50", "setting": "Recombinant human COX-2", "value": 6.24}, {"measurement": "pIC50", "setting": "[1]", "value": 4.70}, {"measurement": "melting point", "value": "71 to 73 °C (dec.)"}]}
{"smiles": "COc1ccc2c(c1)c(CC(=O)NCCC[Si](C)(C)C)c(C)n2C(=O)c1ccc(Cl)cc1", "note": "[Example 1, 2-(1-(4-chlorobenzoyl)-5-methoxy-2-methyl-1H-indol-3-yl)-N-(3-(trimethylsilyl)propyl)acetamide]", "values": [{"measurement": "pIC50", "setting": "Recombinant human COX-1", "value": "< 5.00"}, {"measurement": "pIC50", "setting": "Recombinant human COX-2", "value": 6.68}, {"measurement": "pIC50", "setting": "[1]", "value": 5.18}, {"measurement": "melting point", "value": "97 to 101", "unit": "°C"}]}
{"smiles": "COc1ccc2c(c1)c(CC(=O)NC[Si](C)(C)C)c(C)n2C(=O)c1ccc(Cl)cc1", "note": "[Example 2, 2-(1-(4-chlorobenzoyl)-5-methoxy-2-methyl-1H-indol-3-yl)-N-((trimethylsilyl)methyl)acetamide]", "values": [{"measurement": "pIC50", "setting": "Recombinant human COX-1", "value": 5.57}, {"measurement": "pIC50", "setting": "Recombinant human COX-2", "value": 6.41}, {"measurement": "pIC50", "setting": "[1]", "value": 4.84}, {"measurement": "melting point", "value": "163 to 165", "unit": "°C"}]}
{"smiles": "COc1ccc2c(c1)c(CC(=O)O)c(C)n2C(=O)c1ccc(Cl)cc1", "note": "[Indomethacin, reference compound]", "values": [{"measurement": "pIC50", "setting": "[1]", "value": "< 4.00"}]}
